Experimental data from patent US8247211B2, “Glycopeptide antibiotics” (American Cyanamid Company, priority 2001, dated 2012).
Converted amounts (≈) assume the structure as drawn.

Columns and labels:
Test in all cases: In vitro antibacterial evaluation: minimum inhibitory concentration (MIC), broth dilution method
Format in all cases: cell-based
[1] = test system: Enterococcus sp.; settings: 18 hours at 35° C.
Outline: (§1)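 NCCLS M7-A2 broth dilution; Muller-Hinton II […]; 5×10^5 CFU/mL; 64-0.06 μg/mL. MIC = lowest concentration with no growth.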

[2] = test system: Escherichia coli; settings: Escherichia coli (GC 4560); 18 hours at 35° C.
Outline: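 Using Muller-Hinton II […] and an inoculum of 5×10^5 CFU/mL, antibiotic dilutions from 64 down to 0.06 μg/mL were tested following NCCLS M7-A2. The MIC is the lowest concentration inhibiting growth, including in methicillin-, penicillin- or vancomycin-resistant clinical isolates.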

[3] = test system: Staphylococcus sp.; settings: 18 hours at 35° C.
Outline: as §1

[4] = test system: Streptococcus sp.; settings: 18 hours at 35° C.
Outline: as §1

[5] = Enterococcus faecalis (ATCC 29212)
[6] = Enterococcus faecalis (GC 2242)
[7] = Enterococcus faecalis (GC 2691)
[8] = Enterococcus faecalis (GC 3059)
[9] = Enterococcus faecalis (GC 4552)
[10] = Enterococcus faecalis (GC 4553)
[11] = Enterococcus faecalis (GC 4554)
[12] = Enterococcus faecalis (GC 6189)
[13] = broth dilution, inoculum 5×10^5 CFU/mL
[14] = Streptococcus agalactiae (GC 4564)
[15] = Streptococcus pneumoniae (ATCC 6301)
[16] = Streptococcus pneumoniae (GC 1894)
[17] = Streptococcus pneumoniae (GC 4565)
[18] = Streptococcus pyogenes (GC 4563)

`CC(c1ccccc1)C1NC(=O)CNC(=O)C(CO)NC(=O)C(C(O)C2CNC(=N)N2C2OC(CO)C(O)C(O)C2O)NC(=O)C(C(O)C2CNC(=N)N2)NC(=O)C(Cc2ccc(OC3OC(CO)C(OC4OC(CO)C(O)C(OCc5ccc(OCc6ccccc6)cc5)C4O)C(O)C3O)cc2)NC1=O` (stereo not shown) [Example 231c] was tested, and the “MIC Enterococcus avium (GC 4558)” value ([1]; Enterococcus avium (GC 4558)) was 4 µg/mL (≈ 2.68 µM), the “MIC Enterococcus faecalis (ATCC 29212)” value [1, 5] was 4 µg/mL (≈ 2.68 µM) and the “MIC Enterococcus faecalis (GC 2242)” value [1, 6] was 4 µg/mL (≈ 2.68 µM). For the same compound, the “MIC Enterococcus faecalis (GC 2691)” value [1, 7] was 8 µg/mL (≈ 5.36 µM), the “MIC Enterococcus faecalis (GC 3059)” value [1, 8] was 4 µg/mL (≈ 2.68 µM) and the “MIC Enterococcus faecalis (GC 4552)” value [1, 9] was 4 µg/mL (≈ 2.68 µM). The “MIC Enterococcus faecalis (GC 4553)” value [1, 10] was 4 µg/mL (≈ 2.68 µM), the “MIC Enterococcus faecalis (GC 4554)” value [1, 11] was 4 µg/mL (≈ 2.68 µM) and the “MIC Enterococcus faecalis (GC 6189)” value [1, 12] was 4 µg/mL (≈ 2.68 µM). The “MIC Enterococcus faecium (GC 2243)” value ([1]; Enterococcus faecium (GC 2243)) was 4 µg/mL (≈ 2.68 µM), the “MIC Enterococcus faecium (GC 4556)” value ([1]; Enterococcus faecium (GC 4556)) was 4 µg/mL (≈ 2.68 µM) and the “MIC Enterococcus faecium (GC 4557)” value ([1]; Enterococcus faecium (GC 4557)) was 4 µg/mL (≈ 2.68 µM). The “MIC Enterococcus avium (GC 4558)” value [1, 13] was 4 µg/mL (≈ 2.68 µM), the “MIC Enterococcus faecalis (ATCC 29212)” value [1, 13] was 4 µg/mL (≈ 2.68 µM) and the “MIC Enterococcus faecalis (GC 2242)” value [1, 13] was 4 µg/mL (≈ 2.68 µM). The “MIC Enterococcus faecalis (GC 2691)” value [1, 13] was 8 µg/mL (≈ 5.36 µM), the “MIC Enterococcus faecalis (GC 3059)” value [1, 13] was 4 µg/mL (≈ 2.68 µM) and the “MIC Enterococcus faecalis (GC 4552)” value [1, 13] was 4 µg/mL (≈ 2.68 µM). For the same compound, the “MIC Enterococcus faecalis (GC 4553)” value [1, 13] was 4 µg/mL (≈ 2.68 µM), the “MIC Enterococcus faecalis (GC 4554)” value [1, 13] was 4 µg/mL (≈ 2.68 µM) and the “MIC Enterococcus faecalis (GC 6189)” value [1, 13] was 4 µg/mL (≈ 2.68 µM). For the same compound, the “MIC Enterococcus faecium (GC 2243)” value [1, 13] was 4 µg/mL (≈ 2.68 µM), the “MIC Enterococcus faecium (GC 4556)” value [1, 13] was 4 µg/mL (≈ 2.68 µM) and the “MIC Enterococcus faecium (GC 4557)” value [1, 13] was 4 µg/mL (≈ 2.68 µM). The “MIC Escherichia coli (GC 4560)” value [2] was 2 µg/mL (≈ 1.34 µM), the “MIC Coagulase Negative Staphylococcus (GC 4547)” value [3] was 2 µg/mL (≈ 1.34 µM) and the “MIC Coagulase Negative Staphylococcus (GC 4548)” value [3] was 0.5 µg/mL (≈ 0.335 µM). The “MIC Coagulase Negative Staphylococcus (GC 4549)” value [3] was 0.5 µg/mL (≈ 0.335 µM), the “MIC Coagulase Negative Staphylococcus (GC 4551)” value [3] was 1 µg/mL (≈ 0.67 µM) and the “MIC Coagulase Negative Staphylococcus (GC 6257)” value [3] was 0.5 µg/mL (≈ 0.335 µM). The “MIC Staphylococcus aureus (ATCC 29213)” value [3] was 1 µg/mL (≈ 0.67 µM), the “MIC Staphylococcus aureus (GC 1131)” value [3] was 2 µg/mL (≈ 1.34 µM) and the “MIC Staphylococcus aureus (GC 3051)” value [3] was 2 µg/mL (≈ 1.34 µM). For the same compound, the “MIC Staphylococcus aureus (GC 3053)” value [3] was 2 µg/mL (≈ 1.34 µM), the “MIC Staphylococcus aureus (GC 4541)” value [3] was 2 µg/mL (≈ 1.34 µM) and the “MIC Staphylococcus aureus (GC 4542)” value [3] was 2 µg/mL (≈ 1.34 µM). The “MIC Staphylococcus aureus (GC 4544)” value [3] was 2 µg/mL (≈ 1.34 µM), the “MIC Staphylococcus aureus (GC 4545)” value [3] was 2 µg/mL (≈ 1.34 µM) and the “MIC Staphylococcus aureus-SMITH (GC 4543)” value [3] was 1 µg/mL (≈ 0.67 µM). For the same compound, the “MIC Staphylococcus haemolyticus (GC 4546)” value [3] was 1 µg/mL (≈ 0.67 µM), the “MIC Streptococcus agalactiae (GC 4564)” value [4, 14] was less than 0.12 µg/mL and the “MIC Streptococcus pneumoniae (ATCC 6301)” value [4, 15] was less than 0.12 µg/mL. For the same compound, the “MIC Streptococcus pneumoniae (GC 1894)” value [4, 16] was less than 0.12 µg/mL, the “MIC Streptococcus pneumoniae (GC 4565)” value [4, 17] was less than 0.12 µg/mL and the “MIC Streptococcus pyogenes (GC 4563)” value [4, 18] was less than 0.12 µg/mL. The “MIC Streptococcus agalactiae (GC 4564)” value [4, 13] was less than 0.12 µg/mL, the “MIC Streptococcus pneumoniae (ATCC 6301)” value [4, 13] was less than 0.12 µg/mL and the “MIC Streptococcus pneumoniae (GC 1894)” value [4, 13] was less than 0.12 µg/mL. For the same compound, the “MIC Streptococcus pneumoniae (GC 4565)” value [4, 13] was less than 0.12 µg/mL and the “MIC Streptococcus pyogenes (GC 4563)” value [4, 13] was less than 0.12 µg/mL.
For `COc1ccc(COCC2OC(OC3C(CO)OC(Oc4ccc(CC5NC(=O)C(C(C)c6ccccc6)NC(=O)CNC(=O)C(CO)NC(=O)C(C(O)C6CNC(=N)N6C6OC(CO)C(O)C(O)C6O)NC(=O)C(C(O)C6CNC(=N)N6)NC5=O)cc4)C(O)C3O)C(O)C(O)C2O)c2ccccc12` (stereo not drawn) [Example 240, Cyclo[glycyl-β-methylphenylalanyl-O-[4-O-[6-O-[(4-methoxy-1-naphthyl)methyl]hexo-pyranosyl]hexopyranosyl]tyrosyl-3-(2-iminoimidazolidin-4-yl)seryl-3-(3-hexopyranosyl-2-iminoimidazolidin-4-yl)serylseryl]], the “MIC Enterococcus avium (GC 4558)” value ([1]; Enterococcus avium (GC 4558)) was 4 µg/mL (≈ 2.73 µM), the “MIC Enterococcus faecalis (ATCC 29212)” value [1, 5] was 16 µg/mL (≈ 10.9 µM) and the “MIC Enterococcus faecalis (GC 2242)” value [1, 6] was 16 µg/mL (≈ 10.9 µM). For the same compound, the “MIC Enterococcus faecalis (GC 2691)” value [1, 7] was 8 µg/mL (≈ 5.46 µM), the “MIC Enterococcus faecalis (GC 3059)” value [1, 8] was 8 µg/mL (≈ 5.46 µM) and the “MIC Enterococcus faecalis (GC 4552)” value [1, 9] was 16 µg/mL (≈ 10.9 µM). For the same compound, the “MIC Enterococcus faecalis (GC 4553)” value [1, 10] was 16 µg/mL (≈ 10.9 µM), the “MIC Enterococcus faecalis (GC 4554)” value [1, 11] was 16 µg/mL (≈ 10.9 µM) and the “MIC Enterococcus faecalis (GC 6189)” value [1, 12] was 8 µg/mL (≈ 5.46 µM). For the same compound, the “MIC Enterococcus faecium (GC 2243)” value ([1]; Enterococcus faecium (GC 2243)) was 16 µg/mL (≈ 10.9 µM), the “MIC Enterococcus faecium (GC 4556)” value ([1]; Enterococcus faecium (GC 4556)) was 16 µg/mL (≈ 10.9 µM) and the “MIC Enterococcus faecium (GC 4557)” value ([1]; Enterococcus faecium (GC 4557)) was 2 µg/mL (≈ 1.36 µM). For the same compound, the “MIC Enterococcus faecalis (GC 2242)” value [1, 13] was 16 µg/mL (≈ 10.9 µM), the “MIC Enterococcus faecalis (GC 2691)” value [1, 13] was 8 µg/mL (≈ 5.46 µM) and the “MIC Enterococcus faecalis (GC 3059)” value [1, 13] was 8 µg/mL (≈ 5.46 µM). The “MIC Escherichia coli (GC 4560)” value [2] was 2 µg/mL (≈ 1.36 µM), the “MIC Coagulase Negative Staphylococcus (GC 4547)” value [3] was 4 µg/mL (≈ 2.73 µM) and the “MIC Coagulase Negative Staphylococcus (GC 4548)” value [3] was 2 µg/mL (≈ 1.36 µM). The “MIC Coagulase Negative Staphylococcus (GC 4549)” value [3] was 2 µg/mL (≈ 1.36 µM), the “MIC Coagulase Negative Staphylococcus (GC 4551)” value [3] was 2 µg/mL (≈ 1.36 µM) and the “MIC Coagulase Negative Staphylococcus (GC 6257)” value [3] was 2 µg/mL (≈ 1.36 µM). The “MIC Staphylococcus aureus (ATCC 29213)” value [3] was 4 µg/mL (≈ 2.73 µM), the “MIC Staphylococcus aureus (GC 1131)” value [3] was 4 µg/mL (≈ 2.73 µM) and the “MIC Staphylococcus aureus (GC 3051)” value [3] was 0.5 µg/mL (≈ 0.341 µM). For the same compound, the “MIC Staphylococcus aureus (GC 3053)” value [3] was 4 µg/mL (≈ 2.73 µM), the “MIC Staphylococcus aureus (GC 4541)” value [3] was 1 µg/mL (≈ 0.682 µM) and the “MIC Staphylococcus aureus (GC 4542)” value [3] was 2 µg/mL (≈ 1.36 µM). The “MIC Staphylococcus aureus (GC 4544)” value [3] was 4 µg/mL (≈ 2.73 µM), the “MIC Staphylococcus aureus (GC 4545)” value [3] was 4 µg/mL (≈ 2.73 µM) and the “MIC Staphylococcus aureus-SMITH (GC 4543)” value [3] was 2 µg/mL (≈ 1.36 µM). For the same compound, the “MIC Staphylococcus haemolyticus (GC 4546)” value [3] was 2 µg/mL (≈ 1.36 µM), the “MIC Streptococcus agalactiae (GC 4564)” value [4, 14] was 0.5 µg/mL (≈ 0.341 µM) and the “MIC Streptococcus pneumoniae (ATCC 6301)” value [4, 15] was less than 0.12 µg/mL. The “MIC Streptococcus pneumoniae (GC 1894)” value [4, 16] was less than 0.12 µg/mL, the “MIC Streptococcus pneumoniae (GC 4565)” value [4, 17] was 0.25 µg/mL (≈ 0.171 µM) and the “MIC Streptococcus pyogenes (GC 4563)” value [4, 18] was 0.5 µg/mL (≈ 0.341 µM). The “MIC Streptococcus agalactiae (GC 4564)” value [4, 13] was 0.5 µg/mL (≈ 0.341 µM), the “MIC Streptococcus pneumoniae (ATCC 6301)” value [4, 13] was less than 0.12 µg/mL and the “MIC Streptococcus pneumoniae (GC 1894)” value [4, 13] was less than 0.12 µg/mL. For the same compound, the “MIC Streptococcus pneumoniae (GC 4565)” value [4, 13] was 0.25 µg/mL (≈ 0.171 µM) and the “MIC Streptococcus pyogenes (GC 4563)” value [4, 13] was 0.5 µg/mL (≈ 0.341 µM).
